From ChEMBL document CHEMBL4680175, “Sulfonamide-based ring-fused analogues for CAN508 as novel carbonic anhydrase inhibitors endowed with antitumor activity: Design, synthesis, and in vitro biological evaluation” (Eur J Med Chem, 2020)

Experiments:
Carbonic anhydrase 9 = Carbonic anhydrase 9 (Homo sapiens, UniProt Q16790); experiment: Inhibition of recombinant human carbonic anhydrase 9 preincubated with enzyme for 15 mins by phenol red dye based stopped flow CO2 hydrase assay
CDK9/cyclin T1 = CDK9/cyclin T1 (Homo sapiens, UniProt P50750); experiment: Inhibition of human full-length N-terminal GST/His6-tagged CDK9 (1 to 372 residues)/His6-tagged Cyclin-T1 (1 to 726 residues) expressed in sf9 cells using (YSPTSPS)2KK peptide as substrate in presence of [gamma33P]ATP
Carbonic anhydrase 12 = Carbonic anhydrase 12 (Homo sapiens, UniProt O43570); experiment: Inhibition of recombinant human carbonic anhydrase 12 preincubated with enzyme for 15 mins by phenol red dye based stopped flow CO2 hydrase assay
[1] = target: Cyclin-dependent kinase 2/cyclin E1 (Homo sapiens, UniProt P24941); experiment: Inhibition of CDK2/cyclin E (unknown origin) expressed in baculovirus infected Sf21 insect cells using histone H1 as substrate in presence of [gamma33P]ATP
Carbonic anhydrase 1 = Carbonic anhydrase 1 (Homo sapiens, UniProt P00915); experiment: Inhibition of recombinant human carbonic anhydrase 1 preincubated with enzyme for 15 mins by phenol red dye based stopped flow CO2 hydrase assay
Carbonic anhydrase 2 = Carbonic anhydrase 2 (Homo sapiens, UniProt P00918); experiment: Inhibition of recombinant human carbonic anhydrase 2 preincubated with enzyme for 15 mins by phenol red dye based stopped flow CO2 hydrase assay

Sequence of Carbonic anhydrase 1 (P00915 whole entry): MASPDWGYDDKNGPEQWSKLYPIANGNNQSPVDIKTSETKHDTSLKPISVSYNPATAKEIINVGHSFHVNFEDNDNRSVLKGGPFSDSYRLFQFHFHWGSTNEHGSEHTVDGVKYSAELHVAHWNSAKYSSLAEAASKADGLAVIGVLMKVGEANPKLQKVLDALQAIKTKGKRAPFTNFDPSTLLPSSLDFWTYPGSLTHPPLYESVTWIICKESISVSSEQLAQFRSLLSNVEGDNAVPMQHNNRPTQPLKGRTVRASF
Sequence of CDK9/cyclin T1 (O60563 whole entry, the tested form may be a part): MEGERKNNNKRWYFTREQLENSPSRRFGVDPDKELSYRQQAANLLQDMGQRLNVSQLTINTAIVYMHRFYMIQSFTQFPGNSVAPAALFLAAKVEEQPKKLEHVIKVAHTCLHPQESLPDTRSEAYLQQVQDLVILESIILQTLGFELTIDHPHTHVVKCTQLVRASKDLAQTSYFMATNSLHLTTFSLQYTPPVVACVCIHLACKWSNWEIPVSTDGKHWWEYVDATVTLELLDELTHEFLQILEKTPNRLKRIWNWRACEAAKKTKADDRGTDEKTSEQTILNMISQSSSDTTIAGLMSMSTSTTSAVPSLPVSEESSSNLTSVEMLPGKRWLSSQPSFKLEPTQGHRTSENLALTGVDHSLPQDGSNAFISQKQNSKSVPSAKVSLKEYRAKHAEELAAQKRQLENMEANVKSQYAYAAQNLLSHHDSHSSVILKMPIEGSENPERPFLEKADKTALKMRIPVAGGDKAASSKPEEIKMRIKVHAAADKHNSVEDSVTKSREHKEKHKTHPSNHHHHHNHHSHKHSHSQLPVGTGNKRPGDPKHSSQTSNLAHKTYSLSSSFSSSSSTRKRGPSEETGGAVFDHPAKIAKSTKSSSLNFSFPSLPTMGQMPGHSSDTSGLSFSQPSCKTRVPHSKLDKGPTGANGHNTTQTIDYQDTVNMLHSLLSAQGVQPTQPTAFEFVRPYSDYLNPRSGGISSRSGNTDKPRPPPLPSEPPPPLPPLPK
Sequence of CDK9/cyclin T1 (P50750 whole entry, the tested form may be a part): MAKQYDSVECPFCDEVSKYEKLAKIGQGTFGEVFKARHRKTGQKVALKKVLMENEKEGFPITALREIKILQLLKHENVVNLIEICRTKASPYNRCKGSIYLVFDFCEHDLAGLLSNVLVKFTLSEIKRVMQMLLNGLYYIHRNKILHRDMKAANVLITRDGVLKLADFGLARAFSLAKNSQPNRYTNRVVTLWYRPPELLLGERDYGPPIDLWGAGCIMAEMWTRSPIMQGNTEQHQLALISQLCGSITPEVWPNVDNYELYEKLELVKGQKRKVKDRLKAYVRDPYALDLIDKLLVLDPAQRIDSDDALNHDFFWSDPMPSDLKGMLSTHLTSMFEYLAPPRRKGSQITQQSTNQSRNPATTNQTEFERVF
Sequence of Carbonic anhydrase 12 (O43570 whole entry): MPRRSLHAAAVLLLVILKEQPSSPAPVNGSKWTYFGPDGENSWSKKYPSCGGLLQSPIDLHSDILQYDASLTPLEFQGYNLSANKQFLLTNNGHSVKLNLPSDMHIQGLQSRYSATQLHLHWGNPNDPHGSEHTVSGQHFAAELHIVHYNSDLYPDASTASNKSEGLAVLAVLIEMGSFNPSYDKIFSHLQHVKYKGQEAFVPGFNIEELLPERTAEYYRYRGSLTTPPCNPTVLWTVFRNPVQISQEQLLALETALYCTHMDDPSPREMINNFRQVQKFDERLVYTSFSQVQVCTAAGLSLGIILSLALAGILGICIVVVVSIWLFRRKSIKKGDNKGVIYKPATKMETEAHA

SMILES | Ki (Carbonic anhydrase 9) [nM] | IC50 (CDK9/cyclin T1) [nM] | Ki (Carbonic anhydrase 12) [nM] | IC50 [1] [nM] | Ki (Carbonic anhydrase 1) [nM] | Ki (Carbonic anhydrase 2) [nM]
Cc1ccc(-c2ccnc3c(/N=N/c4ccc(S(N)(=O)=O)cc4)c(N)nn23)cc1 | 45.7 | > 12500 | 60.7 | > 12500 | 1330 | 6.2
Nc1nn2c(-c3ccccc3)ccnc2c1/N=N/c1ccc(S(N)(=O)=O)cc1 | 31.8 | > 12500 | 25.4 | > 12500 | 458 | 27.6
Nc1n[nH]c(N)c1/N=N/c1ccc(S(N)(=O)=O)cc1 | 22 | > 12500 | 10.1 | 41700 | 271 | 38.1
Nc1nn2c(-c3ccc(Cl)cc3)ccnc2c1/N=N/c1ccc(S(N)(=O)=O)cc1 | 56.3 | > 12500 | 44.3 | 6400 | 544 | 23.4
COc1ccc(-c2ccnc3c(/N=N/c4ccc(S(N)(=O)=O)cc4)c(N)nn23)cc1 | 29.3 | > 12500 | 88.6 | > 12500 | 442 | 5.5
